Measurements from US20230050846A1, “TREATMENT OF HEPATIC AND CARDIOVASCULAR DISORDERS” (LIFESEARCH, priority 2019, published 2023).
Peptide text beside a SMILES is read from it. * marks the point of attachment. Palmitoyl = CCCCCCCCCCCCCCCC(=O)*

How the values were obtained:
[1] = tested on: HepG2 cells; assay: HDL endocytosis assay in hepatocytes; format: cell-based, human; conditions: 1 μM; HDL-Alexa568 50 μg/mL, 25 min; abolished by IF1 1 μM
Procedure: HepG2 cells were seeded on 96-well plates at 50,000 cells/well. HDL3 (d 1.12-1.21) were isolated from plasma of healthy human donors and referred to as HDL. HDL was fluorescently labeled with AlexaFluor®568 dye (A10238, Thermofisher Scientific) according the instructions of manufacturer. 1 h30 before the assay, the cells were serum starved for 1 h30 in order to stabilize nucleotide secretion. Cells were incubated with inhibitors (H49K, 1 μM) for 10 min before treatment with the different peptides (1 μM) or apoA-I (10 μg/ml) purified from human plasma. 5 min after peptide treatment, endocytosis was initiated by 50 μg/mL of AlexaFluor568®-labelled HDL. The same experiment was performed with a […] excess of unlabelled HDL (2.5 mg/mL) to determine the nonspecific fluorescence signal. After 25 min at 37° C., cells were then washed in serum-free DMEM and extracellular membrane-bound HDL was disassociated by incubating cells at 4° C. in serum-free DMEM for 90 min. Following washes, cells were lysate in NaOH 0.1M SDS 1% during 2 h, lysates were transferred in a black 96-wells plate and fluorescence was recorded at 568 nm (Varioscan flash). Fluorescence for each condition was substrate with the value obtained in unlabelled HDL condition, and results were expressed as the fold change as compared with the basal condition (untreated cells).

[2] = Stability in PBS (LC-HRMS); format: physicochemical; conditions: 4° C. and 37° C., 4 weeks
Procedure: Peptide of Formula (I) or peptide of Formula (II) were prepared at a concentration of 200 μg/mL in PBS or mixed with EDTA plasma or serum from human (Etablissement Frangais du Sang, EFS) or mouse (C57BL/6J, cardiac puncture). Aliquots from PBS samples (40 μL) were incubated at 4° C. or 37° C. for 0, 1, 2 and 4 weeks. Aliquots from plasma and serum samples (50 μL) were incubated at 4° C. or 37° C. for 0, 1, 2, 4, 6, 12, 24 h.
A mixed solution of peptides of formula (I) and (II) was constituted and serially diluted in PBS to obtain seven standard solutions, ranging from 200 μg/mL to 0.2 μg/mL. In parallel, a mixed solution of labelled peptides of Formula (I) and (II) (Thermo Scientific, Biopolymers Darmstadt, Germany) was prepared in PBS at 100 μg/mL. The mixed solution of labelled peptides (25 μL) was added to 25 μL of standard solutions as well as to PBS, plasma and serum samples. Acetonitrile (150 μL) was added to each sample to precipitate plasma/serum proteins. […] Peptides were analyzed according to their major exact m/z (i 5 ppm, Table 1) and each peptide signal was normalized with that of its labelled internal standard. Peptide concentrations were calculated using calibration curves plotted from standard solutions (linear regression, 1/x weighted, origin excluded).

Molecule | effect on HDL endocytosis [1] | stability in PBS [2]
CCCCCCCCCCCCCCCC(=O)NCCCC[C@H](NC(=O)[C@H](CCC(=O)O)NC(=O)[C@H](CCCNC(=N)N)NC(=O)[C@H](CO)NC(=O)[C@H](CCC(N)=O)NC(=O)[C@H](C)NC(=O)[C@H](CCCNC(=N)N)NC(=O)[C@H](Cc1ccccc1)NC(=O)[C@H](Cc1ccc(O)cc1)NC(=O)[C@H](CCCNC(=N)N)NC(=O)[C@H](CCC(=O)O)NC(=O)[C@H](CCC(=O)O)NC(=O)[C@H](CCC(=O)O)NC(=O)[C@H](C)NC(=O)[C@H](CCC(N)=O)NC(=O)[C@H](CCC(=O)O)NC(=O)[C@H](CCCNC(=N)N)NC(=O)[C@H](CCCCN)NC(=O)CNC(=O)[C@H](Cc1ccccc1)NC(=O)[C@H](C)NC(=O)CNC(=O)CNC(=O)[C@H](C)NC(=O)[C@H](CCC(=O)O)NC(=O)[C@H](CCCNC(=N)N)NC(=O)[C@@H](NC(=O)[C@H](CO)NC(=O)CNC(=O)[C@H](C)NC(=O)CNC(=O)[C@H](CCCNC(=N)N)NC(C)=O)[C@@H](C)CC)C(N)=O [peptide of formula (II), CH3CO-[SEQ ID NO: 1]-K-[palmitoyl]-NH2] (Ac-RGAGSIREAGGAFGKREQAEEERYFRAQSREK(Palmitoyl)-NH2) | stimulated | stable
Ac-RGAGSIREAGGAFGKREQAEEERYFRAQSRE-NH2 [peptide of formula (I), CH3CO-[SEQ ID NO: 1]-NH2] | stimulated | stable
